The values that follow come from patent US20090325964A1, “Piperazine Metabotropic Glutamate Receptor 5 (MGLUR5) Negative Allosteric Modulators For Anxiety/Depression” (Wyeth, priority 2008, published 2009).

One experiment has as its target T1, rat mGluR5 receptor (Rattus norvegicus, UniProt P31424).
T1 construct: expressed in transfected cells; host or cells: HEK-293
In words: [3H]-MPEP displacement binding assay, HEK-293 cell membranes expressing rat mGluR5. To be noted: [3H]-MPEP displacement, rat mGluR5 membranes; read-out: Median Ki. A digest of the protocol: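 Membranes from HEK-293 cells expressing rat mGluR5 (12-25 μg protein), incubated 60 min at room temperature with 4 nM [3H]-MPEP in 50 mM Tris pH 7.5, then filtered. Nonspecific binding defined with 10 μM MPEP.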

The target of another experiment is mGluR5 (Rattus norvegicus, UniProt P31424). In words: IC50 column under 'Biological Activity' (assay not identified in the shown text; not the binding Ki).

The structures appear in SMILES notation.

T1 sequence (P31424 21-1203): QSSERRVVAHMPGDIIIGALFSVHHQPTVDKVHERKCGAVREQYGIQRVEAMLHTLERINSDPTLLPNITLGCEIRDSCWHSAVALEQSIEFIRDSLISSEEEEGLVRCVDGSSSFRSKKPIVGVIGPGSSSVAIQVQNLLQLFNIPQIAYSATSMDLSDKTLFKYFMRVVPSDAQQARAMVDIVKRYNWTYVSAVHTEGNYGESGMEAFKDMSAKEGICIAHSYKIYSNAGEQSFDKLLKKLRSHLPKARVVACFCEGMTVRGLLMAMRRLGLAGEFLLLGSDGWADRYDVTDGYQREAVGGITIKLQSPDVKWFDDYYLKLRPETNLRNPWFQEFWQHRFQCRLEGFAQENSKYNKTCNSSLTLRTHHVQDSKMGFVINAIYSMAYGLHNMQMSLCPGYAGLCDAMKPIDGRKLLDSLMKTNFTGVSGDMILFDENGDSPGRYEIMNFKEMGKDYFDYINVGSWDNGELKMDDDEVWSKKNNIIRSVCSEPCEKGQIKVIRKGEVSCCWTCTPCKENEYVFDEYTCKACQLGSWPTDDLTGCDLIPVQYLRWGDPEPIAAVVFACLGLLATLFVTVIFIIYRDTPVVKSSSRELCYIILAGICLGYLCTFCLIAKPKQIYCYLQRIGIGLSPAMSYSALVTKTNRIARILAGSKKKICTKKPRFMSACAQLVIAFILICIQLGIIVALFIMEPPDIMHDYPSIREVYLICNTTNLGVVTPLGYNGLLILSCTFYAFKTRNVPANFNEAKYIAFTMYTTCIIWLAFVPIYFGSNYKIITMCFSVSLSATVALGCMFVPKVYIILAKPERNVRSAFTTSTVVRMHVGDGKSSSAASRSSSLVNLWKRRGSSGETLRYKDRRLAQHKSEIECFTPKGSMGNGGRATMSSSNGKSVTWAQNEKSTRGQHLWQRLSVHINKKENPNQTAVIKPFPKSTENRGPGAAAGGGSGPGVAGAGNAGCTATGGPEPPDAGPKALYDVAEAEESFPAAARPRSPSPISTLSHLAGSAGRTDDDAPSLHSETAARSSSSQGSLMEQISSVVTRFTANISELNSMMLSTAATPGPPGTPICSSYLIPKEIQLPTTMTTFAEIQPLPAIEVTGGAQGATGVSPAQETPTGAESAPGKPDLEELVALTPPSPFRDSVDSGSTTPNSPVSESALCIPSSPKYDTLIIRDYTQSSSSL
Sequence of mGluR5 (P31424 21-1203): as above

Regarding `N#Cc1nccnc1N1CCN(C(=O)c2ccc(Cl)c(C#Cc3ccccn3)c2)CC1` [Compound 396, 3-(4-{[4-chloro-3-(pyridin-2-ylethynyl)phenyl]carbonyl}piperazin-1-yl)pyrazine-2-carbonitrile], at rat mGluR5 receptor, the Ki (usually the equilibrium dissociation constant of an inhibitor or competing ligand from its target) was determined as 17 nM. The 50% inhibitory concentration (IC50) (as a rule, the concentration needed to halve the response being measured) at mGluR5 turned out to be 47 nM.

For `O=C(c1ccc(Cl)c(C#Cc2ccccn2)c1)N1CCN(c2nccs2)CC1` [Compound 390, 1-[4-chloro-3-(pyridin-2-ylethynyl)benzoyl]-4-(1,3-thiazol-2-yl)piperazine], the Ki on rat mGluR5 receptor stood at 7 nM. For the same molecule, on mGluR5, the IC50 is 39 nM.

Turning to `O=C(c1ccc(Cl)c(C#Cc2ccccn2)c1)N1CCN(c2cnccn2)CC1` [Compound 388, 2-{4-[4-chloro-3-(pyridin-2-ylethynyl)benzoyl]piperazin-1-yl}pyrazine], the Ki at rat mGluR5 receptor amounted to 13 nM. The molecule also came in with an IC50 on mGluR5 of 94 nM.

As to `O=C(c1ccc(C(F)(F)F)c(C#Cc2ccccn2)c1)N1CCN(c2nccs2)CC1` [Compound 378, 1-{[3-(pyridin-2-ylethynyl)-4-(trifluoromethyl)phenyl]carbonyl}-4-(1,3-thiazol-2-yl)piperazine], on rat mGluR5 receptor, the Ki came to 49 nM. For the same molecule, on mGluR5, the IC50 was found to be 43 nM.

`COc1cccc(N2CCN(C(=O)c3ccc(Cl)c(C#Cc4ccccn4)c3)CC2)c1` [Compound 395, 1-{[4-chloro-3-(pyridin-2-ylethynyl)phenyl]carbonyl}-4-(3-methoxyphenyl)piperazine]: the Ki at rat mGluR5 receptor stood at 19 nM. This molecule showed an IC50 at mGluR5 of 113 nM.

Take `O=C(c1ccc(Cl)c(C#Cc2ccccn2)c1)N1CCN(c2cccc(O)c2)CC1` [Compound 393, 3-(4-{[4-chloro-3-(pyridin-2-ylethynyl)phenyl]carbonyl}piperazin-1-yl)phenol]: the Ki at rat mGluR5 receptor is 12 nM. Also, the IC50 on mGluR5 was found to be 144 nM.

With `COc1ccnc(N2CCN(C(=O)c3ccc(C(F)(F)F)c(C#Cc4ccccn4)c3)CC2)n1` [Compound 373, 4-methoxy-2-(4-{[3-(pyridin-2-ylethynyl)-4-(trifluoromethyl)phenyl]carbonyl}piperazin-1-yl)pyrimidine], the Ki on rat mGluR5 receptor was found to be 40 nM. For the same molecule, the IC50 at mGluR5 was 34 nM.

As for `COc1nc(N2CCN(C(=O)c3ccc(OC(F)F)c(C#Cc4ccccn4)c3)CC2)ncc1Br` [Compound 382, 5-bromo-2-(4-{[4-(difluoromethoxy)-3-(pyridin-2-ylethynyl)phenyl]carbonyl}piperazin-1-yl)-4-methoxy pyrimidine], the Ki at rat mGluR5 receptor was determined as 35 nM. Moreover, the IC50 on mGluR5 was found to be 104 nM.

In the case of `O=C(c1ccc(Cl)c(C#Cc2ccccn2)c1)N1CCN(c2ncccc2Cl)CC1` [Compound 394, 1-(3-chloropyridin-2-yl)-4-{[4-chloro-3-(pyridin-2-ylethynyl)phenyl]carbonyl}piperazine], the Ki on rat mGluR5 receptor was determined as 21 nM. Further, the IC50 on mGluR5 was found to be 145 nM.
